Assay results published in ChEMBL document CHEMBL1255561, “A new NF-κB inhibitor based on the amino-epoxyquinol core of DHMEQ” (Bioorg Med Chem Lett, 2010).
Active and inactive are the calls of the source. The calls are words filed in the database; no cut-off is given here.

Key:
[1] = target: Transcription factor p65 (Homo sapiens) (UniProt Q04206); assay: Binding affinity to recombinant NF-kappaB transcription factor p65 subunit (1-325) at 4 equiv mol concentration after 1 hr by MALDI-TOF MS analysis
Sequence of Transcription factor p65 (Homo sapiens) (Q04206 whole entry): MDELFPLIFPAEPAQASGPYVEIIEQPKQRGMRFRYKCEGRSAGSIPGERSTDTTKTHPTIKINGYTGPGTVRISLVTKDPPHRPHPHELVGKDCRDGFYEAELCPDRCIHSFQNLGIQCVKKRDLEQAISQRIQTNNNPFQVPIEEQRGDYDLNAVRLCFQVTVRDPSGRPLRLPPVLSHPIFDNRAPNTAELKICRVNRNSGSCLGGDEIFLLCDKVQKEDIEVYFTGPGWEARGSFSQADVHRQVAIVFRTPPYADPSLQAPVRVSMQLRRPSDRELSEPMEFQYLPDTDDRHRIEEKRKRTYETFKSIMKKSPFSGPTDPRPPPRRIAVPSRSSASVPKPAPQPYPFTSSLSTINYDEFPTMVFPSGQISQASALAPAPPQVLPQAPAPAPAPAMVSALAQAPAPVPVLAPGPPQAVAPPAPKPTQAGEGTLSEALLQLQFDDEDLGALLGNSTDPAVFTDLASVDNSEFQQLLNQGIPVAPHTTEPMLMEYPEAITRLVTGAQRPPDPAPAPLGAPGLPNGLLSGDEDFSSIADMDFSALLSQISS

RAW264.7 [2] = assay: Inhibition of LPS-induced iNOS expression in mouse RAW264.7 cells at up to 30 ug/ml treated 1 hr before LPS challenge measured after 6 hrs by immunoblotting; type: functional, cell-based
RAW264.7 [3] = assay: Inhibition of LPS-induced nitric oxide production in mouse RAW264.7 cells treated 1 hr before LPS challenge measured after 24 hrs by Griess reaction; type: functional, cell-based
RAW264.7 [4] = assay: Inhibition of LPS-induced NF-kappaB activation in mouse RAW264.7 cells at up to 30 ug/ml after 30 mins by electrophoretic mobility shift assay; type: cell-based
RAW264.7 [5] = assay: Cytotoxicity in mouse RAW264.7 cells at 30 ug/ml after 24 hrs by MTT assay; type: cell-based; conditions: raw264.7, 24 h

Activity [1]	Structure (SMILES)	inhibition (RAW264.7 [2])	inhibition (RAW264.7 [3])	inhibition (RAW264.7 [4])	Activity (RAW264.7 [5])
inactive	C=CCOC(=O)NC1=CC(=O)[C@H]2O[C@H]2[C@@H]1O (relative stereo)	Active	Dose-dependent effect	Active	Toxic
Active	C=CCOC(=O)NC1=CC(=O)[C@H]2O[C@H]2[C@H]1O (relative stereo)	Active			
